For one data set, the system named is JNK. Nature of the data set: JNK Activation Assay in C2C12 (western blot). The data set is classed as cell-based, mouse. Details: key: Y = yes; N = No. To be noted: at 10 μM. Here is the method:
Cell lines: Human tumor-derived pancreatic cancer cell line Panc-1 and mouse muscle myoblast C2C12 were purchased from American Type Culture Collection and grown in complete DMEM-High Glucose, supplemented with penicillin (100 U/mL), streptomycin (100 μg/mL), and 10% heat-inactivated FBS at 37° C. in a humidified incubator with 5% CO2.
Method: Cells were plated at 350000 cells/well density in a 12-well plate, allowed 3 hours to adhere to the plate, then starved in the appropriate medium in the presence of 0.5% FBS overnight. The small molecules to be tested were added to the cells in the final concentration of 10 μM in the presence of 0.3% DMSO for 3 hours incubation at 37° C. For IC50 value determination, serial dilutions of compounds were added to cells under the same conditions. […] Protein concentration was assessed by BCA protein assay (Thermo Scientific). Phosphorylation level of JNK was determined by western blot.
Western blot protocol: Equal amounts of protein (15-50 μg) were separated by SDS-PAGE and transferred to nitrocellulose membranes (Invitrogen by Thermo Fisher Scientific). […] Membranes were blocked with 10% milk and phosphorylation levels of Smad2, Smad3, INK and p38 were assessed by incubating overnight at 4° C. with the following antibody: Phospho-SAPK/JNK (Thr183/Tyr185), from Cell Signaling Technology. […]
(In general: Immunoblotting shows a protein as a band on a membrane.)

A short description of data set [1]: Assessment of Plasma Exposure in DBA/2J mice. The data set is classed as in vivo, mouse. As to the method:
(§1) Experimental Design: Compound 9 was suspended in 0.5% Hydroxypropyl Methylcellulose (HPMC)/0.1% Tween® 80 to a final concentration of 10 mg/mL. The dosing solutions were prepared prior to the start of the test. Male DBA/2J mice (Jackson Stock No: 000671) were housed in solid bottom cages with standard chow and water ad libitum. Dosing was initiated when animals were 7-8 weeks old. Mice were dosed at a volume of 10 mL/kg by intraperitoneal (IP) injection at 100 mg/kg or vehicle. […] Blood was collected at 15 min, 30 min, 1 h, 2 h, 4 h, 7 h, 16 h, 24 h by cardiac puncture, mixed gently 8 times and put on ice until centrifuged within 30 minutes of collection. The plasma was transferred to a 96-well plate for analysis of test compound levels.
Preparation of Standard Solutions for Calibration of UPLC: Assay: 2 mg/mL in DMSO Stock solutions of reference standard of Compound 9 was freshly prepared. 15 uL of the 2 mg/mL DMSO stock solution of Compound 9 was spiked into a vial and diluted to a final volume of 1 mL (30 ug/mL). 100 uL of the 30 ug/mL solution was mixed with 900 uL methanol (final conc. 3 ug/mL). A calibration curve was obtained from solutions having concentrations of 0.001, 0.003, 0.01, 0.03, 0.1, 0.5 and 1 ug/mL, which were prepared further dilution of the 3 ug/mL solution with methanol. An internal standard of D3-desacetylDFZ (500 ng/mL in methanol) was used. • UPLC Conditions: • Column: Waters UPLC Acquity BEH C18 Column 2.1*50, 1.7 uM • Mobile phase: A: 0.1% formic acid in water; B: 0.1% formic acid in 100% acetonitrile • Gradient:
• Temperature: 50° C. • Run time: 2 min • Injection volume=2 uL • Instrument: Waters TQ-s • Desolvation Temperature: 500° C. • Desolvation gas flow: 1000 L/hr • Capillary Cone voltage: 0.5 • Reference batch: 21-hydroxy emflaza, Compound 9
Preparation of Samples for UPLC: Protein Precipitation Method Using Millipore Hydrophilic Plate (MSRLN04) to Filter the Precipitated Protein • 1) Plasma calibration curve for positively charged compound: all in the filter plate added • a) IS-410000 in acetonitrile (0.1 ug/mL) 200 uL • b) Calibration curve in methanol: 20 uL • c) Methanol: 20 uL • d) Control mouse plasma: 20 uL • 2) Test plasma • a) IS-410000 in acetonitrile (0.1 ug/mL) 200 uL • b) Calibration curve in methanol: 20 uL • c) Test plasma: 20 uL
Placed sample on automatic shaker for at least 5 min
Centrifuged at 2000 rpm (Eppendorf 5804) for 2 min. 2-2.5 uL supernatant were injected onto LCMS system

Data set [2] is described as follows: Observation for mortality and signs of pain or distress, D2-mdx mice. The data set is classed as in vivo. To be noted: male D2-mdx mice, 100 mg/kg IP daily for 3 days. Here is the method: Experimental Design: Compound 9 was suspended in 0.5% Hydroxypropyl Methylcellulose (HPMC)/0.1% Tween® 80 to a final concentration of 10 mg/mL. The dosing solutions were prepared prior to the start of the test and were stored in the dark and maintained in frozen aliquots. Doses were thawed prior to administration. Male D2-mdx (JAX Stock No: 013141) mice were sourced from The Jackson Laboratory and housed in solid bottom cages with standard chow and water ad libitum. Dosing was initiated when animals were ˜3 weeks old. Animals were dosed daily by intraperitoneal (IP) injection at 100 mg/kg or vehicle for 3 days. […] Mice were sacrificed by CO2 euthanasia approximately 6 hours after their day 3 dosing. Heart, diaphragm, quadriceps, tibialis anterior (TA) samples were collected at termination on day 3 and snap frozen. These samples were shipped on dry ice for analysis, and were stored at −80° C.

A short description of data set [3]: Observation for mortality and signs of pain or distress, DBA/2J mice. The data set is classed as in vivo. To be noted: male DBA/2J mice, single dose, up to 100 mg/kg. Here is the method: as §1
Where [4] appears, read: male, DBA/2J, mouse, plasma, ip, 100 mg/kg, Group 5: 100 mg/kg IP, Vehicle 1, mouse plasma.

Regarding `COCCNc1nc(-c2cn(C)cn2)nc2sc(-c3cccc(OC)c3Cl)c(-c3ccc(OC)cc3)c12` [Compound 8, 6-(2-Chloro-3-methoxyphenyl)-N-(2-methoxyethyl)-5-(4-methoxyphenyl)-2-(1-methyl-1H-imidazol-4-yl)thieno[2,3-d]pyrimidin-4-amine], the “Activation of JNK in C2C12” value with JNK is on record as “Y”.

Take `COCCNc1nc(-c2nccn2C)nc2sc(-c3cccc(OC)c3Cl)c(-c3ccccc3)c12` [Compound 9, 6-(2-Chloro-3-methoxyphenyl)-N-(2-methoxyethyl)-2-(1-methyl-1H-imidazol-2-yl)-5-phenylthieno[2,3-d]pyrimidin-4-amine]: the “Exposures, intraperitoneal (IP) injection compared to oral dosing” value in data set [1] (Group 5 compared to Group 3, 100 mg/kg) is reported as “higher”. In data set [1] (setting [4]), this compound gave an AUC(0-t) of 43000 ng·h/mL, a Cmax of 26000 ng/mL and a half-life of 2.96 h. Moreover, the AUC(0-inf) in data set [1] (male, DBA/2J, mouse, plasma, ip, 100 mg/kg, Group 5: 100 mg/kg IP, Vehicle 1, mouse plasma, read-out: AUCINFobs) was 43200 ng·h/mL. For the same compound, the Tmax in data set [1] (male, DBA/2J, Group 5: 100 mg/kg IP, Vehicle 1, mouse plasma) is 0.25 h. Besides, the “Activation of JNK in C2C12” value with JNK is listed as “Y”. The “findings of overt toxicity” value in data set [2] was “No findings of overt toxicity were observed”. For the same compound, the “findings of overt toxicity” value in data set [3] was “No findings of overt toxicity were observed”.

What is called AUC(0-t) is the area under the concentration-time curve up to a stated or last time point. Broadly, the Cmax is the highest concentration seen after dosing. For orientation: half-life means the time needed for the level to fall by half in the phase considered. As usually defined, the Tmax is the time from dosing to the highest level.

Values taken from patent publication US20240124483A1, “Methods for the Treatment of Fibrotic Disease” (SHY Therapeutics, LLC, priority 2021, published 2024).
